{"source": "patent US11524968B2", "about": "“Heterocyclic compound as a protein kinase inhibitor” (HK inno.N Corporation, priority 2017, dated 2022)"}
{"biological_target": "JAK1 (Homo sapiens (Human), UniProt P23458)", "sequence (P23458 whole entry)": "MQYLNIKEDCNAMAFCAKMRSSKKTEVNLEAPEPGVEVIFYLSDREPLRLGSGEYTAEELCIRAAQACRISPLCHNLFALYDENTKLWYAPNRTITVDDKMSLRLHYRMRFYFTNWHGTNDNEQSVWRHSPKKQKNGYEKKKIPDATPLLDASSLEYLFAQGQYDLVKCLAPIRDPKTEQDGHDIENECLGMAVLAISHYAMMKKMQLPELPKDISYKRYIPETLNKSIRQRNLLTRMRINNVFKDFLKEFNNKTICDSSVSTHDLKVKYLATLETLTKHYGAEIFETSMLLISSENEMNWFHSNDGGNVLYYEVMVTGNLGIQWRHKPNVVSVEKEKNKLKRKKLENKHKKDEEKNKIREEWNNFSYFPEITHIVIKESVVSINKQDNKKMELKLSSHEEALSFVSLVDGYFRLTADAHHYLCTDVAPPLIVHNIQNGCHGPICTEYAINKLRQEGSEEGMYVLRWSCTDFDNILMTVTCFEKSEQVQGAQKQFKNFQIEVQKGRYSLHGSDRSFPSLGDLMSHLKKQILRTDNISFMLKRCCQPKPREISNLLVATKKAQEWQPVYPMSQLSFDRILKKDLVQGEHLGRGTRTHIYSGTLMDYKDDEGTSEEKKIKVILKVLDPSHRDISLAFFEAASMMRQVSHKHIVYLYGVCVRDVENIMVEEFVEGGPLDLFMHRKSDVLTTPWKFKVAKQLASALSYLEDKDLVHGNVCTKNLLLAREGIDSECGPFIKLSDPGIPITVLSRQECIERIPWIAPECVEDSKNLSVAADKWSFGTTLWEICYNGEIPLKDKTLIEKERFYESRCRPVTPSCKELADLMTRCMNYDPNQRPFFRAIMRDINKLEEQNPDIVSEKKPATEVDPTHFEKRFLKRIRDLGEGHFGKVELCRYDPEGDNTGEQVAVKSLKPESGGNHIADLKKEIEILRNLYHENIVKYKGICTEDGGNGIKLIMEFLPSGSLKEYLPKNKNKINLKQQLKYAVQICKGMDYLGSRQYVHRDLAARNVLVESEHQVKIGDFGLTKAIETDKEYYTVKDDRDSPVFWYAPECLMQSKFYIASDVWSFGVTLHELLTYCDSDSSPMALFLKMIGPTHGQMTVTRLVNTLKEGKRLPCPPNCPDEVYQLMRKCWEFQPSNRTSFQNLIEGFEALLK", "experiment": "Analysis of JAK1 activity inhibition ability (ADP-Glo Kinase Assay)", "type": "biochemical", "conditions": "JAK1 enzyme, ADP-Glo luminescence, ATP 250 uM, IRS-itide substrate, 30° C. 40 minutes; read-out: IC50", "outline": "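JAK1 enzyme, IRS-itide substrate (40 ng/mL) and 250 uM ATP, both as prepared in kinase buffer (Tris-HCl pH 7.5, MgCl2, BSA, DTT), reacted with compound 40 min at 30 °C. ADP formed was detected by ADP-Glo luminescence; IC50 is the concentration giving 50% inhibition versus control.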", "units": {"IC50": "nM"}}
{"smiles": "CCNC(=S)N1CC=C(c2cc(NC(=O)C3CC3)nc3[nH]ccc23)CC1", "note": "[Example 468, N-(4-(1-(ethylcarbamothioyl)-1,2,3,6-tetrahydropyridin-4-yl)-1H-pyrrolo[2,3-b]pyridin-6-yl)cyclopropanecarboxamide]", "IC50": "20 to 200"}
{"smiles": "O=C(Nc1cc(-c2ccc(CS(=O)(=O)N3CCOCC3)cc2)c2cc[nH]c2n1)C1CC1", "note": "[Example 534, N-(4-(4-((morpholinosulfonyl)methyl)phenyl)-1H-pyrrolo[2,3-b]pyridin-6-yl)cyclopropanecarboxamide]", "IC50": "> 200"}
{"smiles": "N#CCC(=O)N1CCC(N2CC(CC#N)(N3CC=C(c4cc(NC(=O)C5CC5)nc5[nH]ccc45)CC3)C2)CC1", "note": "[Example 622, N-(4-(1-(1-(1-(2-cyanoacetyl)piperidin-4-yl)-3-(cyanomethyl)azetidin-3-yl)-1,2,3,6-tetrahydropyridin-4-yl)-1H-pyrrolo[2,3-b]pyridin-6-yl)cyclopropanecarboxamide]", "IC50": "20 to 200"}
{"smiles": "O=C(Nc1cc(-c2ccc(NS(=O)(=O)CC3CCCCC3)cc2)c2cc[nH]c2n1)C1CC1", "note": "[Example 47, N-(4-(4-((cyclohexylmethyl)sulfonamido)phenyl)-1H-pyrrolo[2,3-b]pyridin-6-yl)cyclopropanecarboxamide]", "IC50": "< 20"}
{"smiles": "N#CC1(CC(=O)N2CC=C(c3cc(NC(=O)C4CC4)nc4[nH]ccc34)CC2)CC1", "note": "[Example 268, N-(4-(1-(2-(1-cyanocyclopropyl)acetyl)-1,2,3,6-tetrahydropyridin-4-yl)-1H-pyrrolo[2,3-b]pyridin-6-yl)cyclopropanecarboxamide]", "IC50": "20 to 200"}
{"smiles": "N#CC1(CS(=O)(=O)Nc2ccc(-c3cc(NC(=O)C4CC4)nc4[nH]ccc34)cc2)CC1", "note": "[Example 88, N-(4-(4-(((1-cyanocyclopropyl)methyl)sulfonamido)phenyl)-1H-pyrrolo[2,3-b]pyridin-6-yl)cyclopropanecarboxamide]", "IC50": "< 20"}
{"smiles": "CCS(=O)(=O)N1CC(CC#N)(N2CC=C(c3cc(NC(=O)C4CC4)nc4[nH]ccc34)CC2)C1", "note": "[Example 616, N-(4-(1-(3-(cyanomethyl)-1-(ethylsulfonyl)azetidin-3-yl)-1,2,3,6-tetrahydropyridin-4-yl)-1H-pyrrolo[2,3-b]pyridin-6-yl)cyclopropanecarboxamide]", "IC50": "< 20"}
{"smiles": "CCS(=O)(=O)NC1CC=C(c2cc(NC(=O)C3CC3)nc3[nH]ccc23)CC1", "note": "(centres unmarked) [Example 151, N-(4-(4-(ethylsulfonamido)cyclohex-1-en-1-yl)-1H-pyrrolo[2,3-b]pyridin-6-yl)cyclopropanecarboxamide]", "IC50": "20 to 200"}
{"smiles": "O=C(Nc1cc(C2=CC3CCC(C2)N3C(=O)CC(F)(F)F)c2cc[nH]c2n1)C1CC1", "note": "(centres unmarked) [Example 261, N-(4-(8-(3,3,3-trifluoropropanoyl)-8-azabicyclo[3.2.1]oct-2-en-3-yl)-1H-pyrrolo[2,3-b]pyridin-6-yl)cyclopropanecarboxamide]", "IC50": "20 to 200"}
{"smiles": "O=C(Nc1cc(C2=CC3CCCC(C2)N3C(=O)c2ccc([N+](=O)[O-])cc2)c2cc[nH]c2n1)C1CC1", "note": "(centres unmarked) [Example 370, N-(4-(9-(4-nitrobenzoyl)-9-azabicyclo[3.3.1]non-2-en-3-yl)-1H-pyrrolo[2,3-b]pyridin-6-yl)cyclopropanecarboxamide]", "IC50": "20 to 200"}
{"smiles": "CC1CN(C(=O)/C=C/CCBr)CC=C1c1cc(NC(=O)C2CC2)nc2[nH]ccc12", "note": "(centres unmarked) [Example 339, (E)-N-(4-(1-(5-bromopent-2-enoyl)-3-methyl-1,2,3,6-tetrahydropyridin-4-yl)-1H-pyrrolo[2,3-b]pyridin-6-yl)cyclopropanecarboxamide]", "IC50": "20 to 200"}
{"smiles": "N#CCC1(CS(=O)(=O)Nc2cc(F)c(-c3cc(NC(=O)C4CC4)nc4[nH]ccc34)cc2F)CC1", "note": "[Example 106, N-(4-(4-(((1-(cyanomethyl)cyclopropyl)methyl)sulfonamido)-2,5-difluorophenyl)-1H-pyrrolo[2,3-b]pyridin-6-yl)cyclopropanecarboxamide]", "IC50": "< 20"}
{"smiles": "O=C(Nc1cc(-c2ccc(NS(=O)(=O)C3CC3)cc2)c2cc[nH]c2n1)C1CC1", "note": "[Example 57, N-(4-(4-(cyclopropanesulfonamido)phenyl)-1H-pyrrolo[2,3-b]pyridin-6-yl)cyclopropanecarboxamide]", "IC50": "< 20"}
{"smiles": "O=C(Nc1cc(C2=CCC(NC(=O)C3CC3)CC2)c2cc[nH]c2n1)C1CC1", "note": "(centres unmarked) [Example 246, N-(4-(6-(cyclopropanecarboxamido)-1H-pyrrolo[2,3-b]pyridin-4-yl)cyclohex-3-en-1-yl)cyclopropanecarboxamide]", "IC50": "20 to 200"}
{"smiles": "N#CCC(=O)NC1CC=C(c2cc(NC(=O)C3CC3)nc3[nH]ccc23)CC1", "note": "(centres unmarked) [Example 247, N-(4-(4-(2-cyanoacetamido)cyclohex-1-en-1-yl)-1H-pyrrolo[2,3-b]pyridin-6-yl)cyclopropanecarboxamide]", "IC50": "20 to 200"}
{"smiles": "O=C(Nc1nc(-c2ccc(NS(=O)(=O)c3ccc(F)c(F)c3)cc2)c2nc[nH]c2n1)C1CC1", "note": "[Example 208, N-(6-(4-((3,4-difluorophenyl)sulfonamido)phenyl)-9H-purin-2-yl)cyclopropanecarboxamide]", "IC50": "> 200"}
{"smiles": "CCNC(=S)Nc1ccc(-c2nc(NC(=O)C3CC3)nc3[nH]ccc23)cc1", "note": "[Example 466, N-(4-(4-(3-ethylthioureido)phenyl)-7H-pyrrolo[2,3-d]pyrimidin-2-yl)cyclopropanecarboxamide]", "IC50": "20 to 200"}
{"smiles": "CC1CN(C(=O)NCC(F)(F)F)CC=C1c1cc(NC(=O)C2CC2)nc2[nH]ccc12", "note": "(centres unmarked) [Example 453, 4-(6-(cyclopropanecarboxamido)-1H-pyrrolo[2,3-b]pyridin-4-yl)-3-methyl-N-(2,2,2-trifluoroethyl)-3,6-dihydropyridine-1 (2H)-carboxamide]", "IC50": "< 20"}
{"smiles": "CC(C)(C)OC(=O)N1CCN(C(=O)Cc2ccc(-c3cc(NC(=O)C4CC4)nc4[nH]ccc34)cc2)CC1", "note": "[Example 554, tert-butyl 4-(2-(4-(6-(cyclopropanecarboxamido)-1H-pyrrolo[2,3-b]pyridin-4-yl)phenyl)acetyl)piperazine-1-carboxylate]", "IC50": "20 to 200"}
{"smiles": "C[C@H]1CC(Nc2ccc(-c3cc(NC(=O)C4CC4)nc4[nH]ccc34)cc2)CCN1C(=O)c1cc(F)cc(F)c1", "note": "(stereo partly drawn) [Example 502, N-(4-(4-(((2S)-1-(3,5-difluorobenzoyl)-2-methylpiperidin-4-yl)amino)phenyl)-1H-pyrrolo[2,3-b]pyridin-6-yl)cyclopropanecarboxamide]", "IC50": "> 200"}
{"smiles": "O=C(Nc1cc(-c2ccc(NS(=O)(=O)N3CCCCC3)cc2)c2cc[nH]c2n1)C1CC1", "note": "[Example 219, N-(4-(4-(piperidine-1-sulfonamido)phenyl)-1H-pyrrolo[2,3-b]pyridin-6-yl)cyclopropanecarboxamide]", "IC50": "< 20"}
{"smiles": "CCc1cc(-c2cc(NC(=O)C3CC3)nc3[nH]ccc23)ccc1NS(=O)(=O)C1CC1", "note": "[Example 125, N-(4-(4-(cyclopropanesulfonamido)-3-ethylphenyl)-1H-pyrrolo[2,3-b]pyridin-6-yl)cyclopropanecarboxamide]", "IC50": "< 20"}
{"smiles": "COc1ccc(C(=O)N2CC=C(c3cc(NC(=O)C4CC4)nc4[nH]ccc34)C(C)C2)c(OC)c1", "note": "(centres unmarked) [Example 356, N-(4-(1-(2,4-dimethoxybenzoyl)-3-methyl-1,2,3,6-tetrahydropyridin-4-yl)-1H-pyrrolo[2,3-b]pyridin-6-yl)cyclopropanecarboxamide]", "IC50": "> 200"}
{"smiles": "O=C(Nc1cc(C2=CCN(S(=O)(=O)NCC(F)(F)F)CC2)c2cc[nH]c2n1)C1CC1", "note": "[Example 232, N-(4-(1-(N-(2,2,2-trifluoroethyl)sulfamoyl)-1,2,3,6-tetrahydropyridin-4-yl)-1H-pyrrolo[2,3-b]pyridin-6-yl)cyclopropanecarboxamide]", "IC50": "20 to 200"}
{"smiles": "N#CCCC(=O)N1CC=C(c2cc(NC(=O)C3CC3)nc3[nH]ccc23)C2(CC2)C1", "note": "[Example 302, N-(4-(5-(3-cyanopropanoyl)-5-azaspiro[2.5]oct-7-en-8-yl)-1H-pyrrolo[2,3-b]pyridin-6-yl)cyclopropanecarboxamide]", "IC50": "20 to 200"}
{"smiles": "CCS(=O)(=O)Nc1ccc(-c2cc(NC(=O)C3CC3)[n+]([O-])c3[nH]ccc23)c(C)c1", "note": "[Example 134, 6-(cyclopropanecarboxamido)-4-(4-(ethylsulfonamido)-2-methylphenyl)-1H-pyrrolo[2,3-b]pyridine 7-oxide]", "IC50": "20 to 200"}
{"smiles": "N#CCC(=O)N1CC=C(c2cc(NC(=O)c3ccco3)nc3[nH]ccc23)CC1", "note": "[Example 301, N-(4-(1-(2-cyanoacetyl)-1,2,3,6-tetrahydropyridin-4-yl)-1H-pyrrolo[2,3-b]pyridin-6-yl)furan-2-carboxamide]", "IC50": "> 200"}
{"smiles": "CCCCS(=O)(=O)Nc1ccc(-c2nc(NC(=O)C3CC3)nc3[nH]ccc23)cc1", "note": "[Example 191, N-(4-(4-(butylsulfonamido)phenyl)-7H-pyrrolo[2,3-d]pyrimidin-2-yl)cyclopropanecarboxamide]", "IC50": "< 20"}
{"smiles": "O=C(Nc1cc(C2CC3CCC(C2)N3S(=O)(=O)CCCF)c2cc[nH]c2n1)C1CC1", "note": "(centres unmarked) [Example 648, N-(4-(8-((3-fluoropropyl)sulfonyl)-8-azabicyclo[3.2.1]octan-3-yl)-1H-pyrrolo[2,3-b]pyridin-6-yl)cyclopropanecarboxamide]", "IC50": "> 200"}
{"smiles": "O=C(Nc1cc(-c2ccc(NC3CCN(C(=O)c4ccnc(F)c4)CC3)cc2)c2cc[nH]c2n1)C1CC1", "note": "[Example 509, N-(4-(4-((1-(2-fluoroisonicotinoyl)piperidin-4-yl)amino)phenyl)-1H-pyrrolo[2,3-b]pyridin-6-yl)cyclopropanecarboxamide]", "IC50": "> 200"}
{"smiles": "N#CC1(CC(=O)N2CCN(c3cc(NC(=O)C4CC4)nc4[nH]ccc34)CC2)CC1", "note": "[Example 683, N-(4-(4-(2-(1-cyanocyclopropyl)acetyl)piperazin-1-yl)-1H-pyrrolo[2,3-b]pyridin-6-yl)cyclopropanecarboxamide]", "IC50": "20 to 200"}
{"smiles": "COC(=O)c1cc(NS(=O)(=O)CC2(C#N)CC2)ccc1-c1cc(NC(=O)C2CC2)nc2[nH]ccc12", "note": "[Example 142, methyl 5-(((1-cyanocyclopropyl)methyl)sulfonamido)-2-(6-(cyclopropanecarboxamido)-1H-pyrrolo[2,3-b]pyridin-4-yl)benzoate]", "IC50": "> 200"}
